This series can be described thus: seven days indicative acute toxicity after oral administration. The following applies: rat, in vivo, rats. On the procedure:
Seven days indicative acute toxicity after oral administration was assessed for the compounds of the invention. For example, for the compound identified by the code K 13262, a LD50 >400 mg/kg in rats was obtained.

SMILES strings stand for the structures.

The values below come from patent US4160028A, “Substituted 2-cyclopropyl-chromones and pharmaceutical compositions and use thereof” (Carlo Erba S.p.A., priority 1977, dated 1979).

In general, LD50 refers to the dose expected to kill half of the subjects tested. Read a high LD50 as a less toxic substance. As to `CCCc1c([C@@H]2C[C@H]2c2ccccc2)oc2ccc(C(=O)O)cc2c1=O` (relative stereo) [K 13262, trans 6-carboxy-3-propyl-2-(2-phenyl-cyclopropyl)-chromone], the LD50 at 168 h was above 400 mg/kg.
